Test results as given in patent US6884577B2, “Methods for screening compounds for estrogenic activity” (The Regents of the University of California, priority 1993, dated 2005).

Columns and labels:
[1] = test system: ER activation of AP-1 (Coll73-LUC); assay: Inhibitor screen: ER transiently transfected with Coll73-LUC in HeLa or HepG2 cells, hormone plus prospective inhibitor; assay type: cell-based
Protocol: (§1) An estrogen receptor (ER) was transiently transfected into either HeLa or HepG2 cells along with an AP-1 responsive reporter gene, Coll73-LUC. The transformed cells were then contacted with antiestrogens or estrogen in combination with prospective inhibitor drugs. […] Luciferase was measured in cell extracts as an indication of AP-1 dependent promoter activity.

[2] = test system: HE15 activation of AP-1 activity; assay: Inhibitor screen: HE15 (constitutive ER) activation of AP-1 activity; assay type: cell-based; conditions: HeLa cells
Protocol: as §1

MCF-7 cell = conditions: Braacke et al. 1991; cited from earlier work
[3] = test system: human ER at the AP-1 site of the collagenase promoter (coll73); assay: Coll73-LUC luciferase reporter (collagenase promoter with AP-1 site) in cells transfected with human ER expression vector HEO; assay type: cell-based; conditions: for Coll73 Luciferase Activity: relative to no ER; for half maximal dose relative to that for estrogen, induction of coll73-LUC: HeLa cells, 5 μg ER expression vector, FIG. 3B
Protocol: All reporter genes described below have been modified by digestion with EcoR I and Ndel to remove a AP-I site in the backbone of pUG. […] Coll73-LUC was constructed by cloning a BamHI/Pvull fragment, that spanned the luciferase transcription unit, from pMG3 into coll73, which had been digested with BamHI and SmaI to remove the CAT transcription unit.
(§2) Cells were maintained and transfected as previously described in Webb et al., supra. […] F9 cells were seeded at 30% confluence upon 1.5 cm dishes and transfected overnight by calcium phosphate coprecipitation with 5 μg reporter gene, 1 μg actin β-HCG, and 1 μg of HEO, 300 ng each of c-jun and c-fos expression vectors. The cells were glycerol shocked and refed in growth medium containing hormone or ethanolic vehicle.
(§3) CAT assays were carried out as described in Webb et al., except that the cells were harvested one to two days after transfection instead of three. CAT activities were defined as the increase in cpm per hour at room temperature (corrected for background) per 100 μl of cell extract, normalized to production of 100 standard units of βHCG, from a co-transfected reporter gene, actin-HCG. […] Light units were defined as the luciferase activity per 100 μl of cell extract per 100 standard units of βHCG. Relative luciferase activities were calculated with respect to the results that were obtained in the absence of ER and hormone, which was set at 1 unit. For the data presented in Table I triplicate points were determined.
In each case, the cells were transfected with different amounts of the human ER expression vector HEO to determine the optimal response.

[4] = test system: human ER at the AP-1 site (collagenase promoter, AP-1-tk), HeLa cells; assay: CAT assays of HeLa cells transfected with AP-1 site reporter genes and human ER expression vector; assay type: cell-based
Protocol: Representations, at left, show the human collagenase promoter (shaded) and the consensus AP-1 site. […] CAT activity is normalized to a transfection control with the actin promoter driving expression of βHCG. Single representative experiments are shown, error bars represent standard deviation of triplicate hormone treatments.
as §2, §3
To further examine the effects of antiestrogens on the AP-1 directed pathway, reporter genes derived from the human collagenase promoter were transfected into HeLa cells.

ER at classical ERE = assay: Reporter genes containing classical EREs (ERE-coll60, ERE-tk) in cells with ER; assay type: cell-based, human
Protocol: FIGS. 2A-2C show antiestrogen stimulation of expression in an intact AP-1 Site, but not at classical EREs. […] Representations, at left, show the human collagenase promoter (shaded) and the consensus AP-1 site. CAT activities were from cells maintained in the absence of hormone or saturating concentrations of ICI 164,384 (ICI, 1 μM), tamoxifen (5 μM) or estradiol ([…]). CAT activity is normalized to a transfection control with the actin promoter driving expression of βHCG. Single representative experiments are shown, error bars represent standard deviation of triplicate hormone treatments.
All reporter genes described below have been modified by digestion with EcoR I and Ndel to remove a AP-I site in the backbone of pUG. Thus, Coll73 and Coll60 are formerly_Coll73 and_Coll60 (Lopez et al. Mol. Cell. Biol. 13:3042-930 (1993)). Coll73-LUC was constructed by cloning a BamHI/Pvull fragment, that spanned the luciferase transcription unit, from pMG3 into coll73, which had been digested with BamHI and SmaI to remove the CAT transcription unit. EREcoll60 and EREcoll73 was prepared by ligation of a consensus ERE ([…], SEQ ID NO:3), into the HindIII site upstream of coll60 and coll73, respectively. All other reporter genes have been previously described (Webb et al. Mol. Endocrinol. 6:157-16725 (1992): and Lopez et al., supra).
Cells were maintained and transfected as previously described in Webb et al., supra. Hormones were added two hours after plating in the following concentrations, estradiol 100 nM, ICI 164,384 1 μM, tamoxifen 5 μM, to ensure saturation of the response. F9 cells were seeded at 30% confluence upon 1.5 cm dishes and transfected overnight by calcium phosphate coprecipitation with 5 μg reporter gene, 1 μg actin β-HCG, and 1 μg of HEO, 300 ng each of c-jun and c-fos expression vectors. The cells were glycerol shocked and refed in growth medium containing hormone or ethanolic vehicle. In transient transfections, optimal amounts of HEO were employed and were as follows: HeLa (5 μg); NIH3T3 (1 μg); HepG2 (1 μg); SHM (300 ng); SY5Y (300 ng); CEF (100 ng); CV-1 (3 μg); MDA453 (3 μg); CHO (100 ng) and F9 (1 μg).
CAT assays were carried out as described in Webb et al., except that the cells were harvested one to two days after transfection instead of three. CAT activities were defined as the increase in cpm per hour at room temperature (corrected for background) per 100 μl of cell extract, normalized to production of 100 standard units of βHCG, from a co-transfected reporter gene, actin-HCG. Luciferase assays were performed as described by Brasier et al. Methods Enzymol 216:386-97 (1992)) on similar extracts that were used for CAT assays. Light units were defined as the luciferase activity per 100 μl of cell extract per 100 standard units of βHCG. Relative luciferase activities were calculated with respect to the results that were obtained in the absence of ER and hormone, which was set at 1 unit. For the data presented in Table I triplicate points were determined. Standard deviations were less than 20%.
The activity of antiestrogens in the AP-1 pathway was also compared with their activity in the classical pathway. […] A promoter with both an ERE and an AP-1 site (ERE-coll73 FIG. 2C) gave a large estrogen response, but retained some response to antiestrogens. Another control reporter, in which the tk promoter was regulated by a classical ERE (ERE-tk FIG. 2C) was also activated by estrogen, but not by antiestrogens.

[5] = test system: ER at the AP-1 site of the collagenase promoter; assay: Collagenase promoter reporter in cells that express endogenous ER (Ishikawa, MCF-7, ZR-75-1); assay type: cell-based; conditions: for activation of the collagenase promoter (coll73-CAT) / induction of the collagenase promoter (coll73-LUC): Ishikawa cells; for activation of the collagenase promoter (coll73-CAT): endogenous receptor, FIG. 4A; for induction of the collagenase promoter (coll73-LUC): receptor levels raised by transfection
Protocol: Left panel, coll73-CAT response with endogenous ER contrasted with the response of an ERE regulated reporter, ERE-coll60CAT. Right panel, coll73-LUC response with 3 μg co-transfected expression vector for human ER. Averages of three individual experiments are shown. […] A single representative experiment with triplicate hormone treatments is shown.
(§4) To further explore this phenomenon, and to test whether similar hormone effects could be detected at physiological levels of ER, the expression of the collagenase promoter in cells that express endogenous ER was examined.

[6] = test system: ER at classical ERE, Ishikawa cells; assay: ERE-coll60CAT reporter in Ishikawa cells; assay type: cell-based
Text: Left panel, coll73-CAT response with endogenous ER contrasted with the response of an ERE regulated reporter, ERE-coll60CAT. […] Averages of three individual experiments are shown. […] A single representative experiment with triplicate hormone treatments is shown.
as §4

[7] = test system: ER at classical ERE, ERC1 cells; assay: Estrogenic activity screen: CAT reporter gene linked to a classical ERE in ERC1 cells; assay type: cell-based, human; conditions: ICI 164384 with series 4 compounds
Protocol: A library of hydroxystilbene derivatives as shown in FIG. 9 was screened for estrogenic activity in cell culture assays using a CAT reporter gene linked to a classical ERE in ERC1 cells as described in Webb et al., supra. After transient transfection with CAT reporter genes, each hydroxystilbene was added to the cultured ERC 1 cells. ER-regulated response was compared either to treatment with 17β-estradiol as a calibration standard or to treatment with an ethanolic vehicle.
Dose response experiments were performed on the series 4 compounds over a concentration range of 0-100 μM (FIG. 1).

[8] = CEF (fibroblast), no hormone, saturating hormone
[9] = CHO (ovary), no hormone, saturating hormone
[10] = CV-1 (kidney), no hormone, saturating hormone
[11] = F9 (teratocarcinoma), no hormone, unliganded ER gave 3.2
[12] = HELA (cervix), no hormone = 1, ICI 1 μM, tamoxifen 5 μM, estradiol 100 nM
[13] = HEP G2 (liver), no hormone, saturating hormone
[14] = MDA453 (breast), no hormone, saturating hormone
[15] = NIH 3T3 (fibroblast), no hormone, saturating hormone
[16] = SHM (myometrium), no hormone, saturating hormone
[17] = SY5Y (neuroblastoma), no hormone, saturating hormone

Nc1ncc2[nH]cnc2n1 [2-aminopurine]
inhibition of hormone action at AP-1 sites [1]: inhibit hormone action at AP-1 sites | inhibition of the activation of AP-1 activity by HE15 [2]: inhibit

CC/C(=C(\c1ccccc1)c1ccc(OCCN(C)C)cc1)c1ccc(O)cc1 [4′-hydroxytamoxifen]
MCF-7 cell invasion activity of a re-constituted basement membrane (MCF-7 cell): stimulated

Nc1nc2nc[nH]c2c(=S)[nH]1 [6-thioguanine]
inhibition of hormone action at AP-1 sites [1]: inhibit hormone action at AP-1 sites | inhibition of the activation of AP-1 activity by HE15 [2]: inhibit

O=S(=O)(NCCNC/C=C/c1ccc(Br)cc1)c1cccc2cnccc12 [H89]
inhibition of the activation of AP-1 activity by HE15 [2]: did not

CCCCN(C)C(=O)CCCCCCCCCC[C@@H]1Cc2cc(O)ccc2[C@H]2CC[C@]3(C)[C@@H](O)CC[C@H]3[C@H]12 [ICI 164,384]
Coll73 Luciferase Activity [3, 8]: 3.2 | Coll73 Luciferase Activity [3, 9]: 1.8 | Coll73 Luciferase Activity [3, 10]: 3.1 | Coll73 Luciferase Activity [3, 11]: 2.4 | Coll73 Luciferase Activity [3, 12]: 3.7 | Coll73 Luciferase Activity [3, 13]: 5.2 | half maximal dose relative to that for estrogen, induction of coll73-LUC [3]: about 10 times | Coll73 Luciferase Activity [3, 14]: 1.1 | Coll73 Luciferase Activity [3, 15]: 3.0 | Coll73 Luciferase Activity [3, 16]: 1.9 | Coll73 Luciferase Activity [3, 17]: 2.3 | activation of transcription, collagenase AP-1 site upstream of the herpes virus tk promoter [4]: able to activate transcription | activity at classical EREs (ER at classical ERE; range of cell types of Table I (data not shown)): pure antagonist | activation of the collagenase promoter (coll73-CAT) [5]: usually inactive | induction of the collagenase promoter (coll73-LUC) [5]: inductions became detectable | expression of ERE-coll60 [6]: neither ICI nor tamoxifen activated | inhibition of the series 4 estrogenic activity [7]: inhibit the estrogenic activity of all the series 4 compounds | MCF-7 cell invasion activity of a re-constituted basement membrane (MCF-7 cell): blocked

O=c1c(-c2ccc(O)cc2)coc2cc(O)cc(O)c12 [genistein]
inhibition of hormone action at AP-1 sites [1]: inhibit hormone action at AP-1 sites | inhibition of the activation of AP-1 activity by HE15 [2]: inhibit

CC/C(=C(\c1ccccc1)c1ccc(OCCN(C)C)cc1)c1ccccc1 [tamoxifen]
Coll73 Luciferase Activity [3, 8]: 2.2 | Coll73 Luciferase Activity [3, 9]: 2.2 | Coll73 Luciferase Activity [3, 10]: 5.3 | Coll73 Luciferase Activity [3, 11]: 1.1 | Coll73 Luciferase Activity [3, 12]: 7.4 | Coll73 Luciferase Activity [3, 13]: 6.5 | half maximal dose relative to that for estrogen, induction of coll73-LUC [3]: ~100 times | Coll73 Luciferase Activity [3, 14]: 2.1 | Coll73 Luciferase Activity [3, 15]: 3.1 | Coll73 Luciferase Activity [3, 16]: 2.2 | Coll73 Luciferase Activity [3, 17]: 2.1 | activation of transcription, collagenase AP-1 site upstream of the herpes virus tk promoter [4]: able to activate transcription | activation of the collagenase promoter (coll517, coll73) ([4]; transiently expressed human ER, FIG. 2A): more potent an activator than estrogen | inductions at classical EREs, % of estrogen (ER at classical ERE; CEF cells): 30% | inductions at classical EREs, % of estrogen (ER at classical ERE; CV-1 cells): 30% | inductions of ERE-coll60 activity relative to those obtained with estrogen (ER at classical ERE; HeLa cells, and most other cases): less than 3% | inductions at classical EREs, % of estrogen (ER at classical ERE; MDA453 cells): 30% | activation of the collagenase promoter (coll73-CAT) [5]: activated | induction of the collagenase promoter (coll73-LUC) [5]: inductions became larger | activation of the collagenase promoter ([5]; MCF-7 cells, endogenous ER, FIG. 4B): not tamoxifen | activation of the collagenase promoter ([5]; ZR-75-1 cells): The same pattern occurred | expression of ERE-coll60 [6]: neither ICI nor tamoxifen activated

calphostin c
inhibition of the activation of AP-1 activity by HE15 [2]: did not
